Tests used:
Assay type in all cases: cell-based
human TLR7 = target: T1, human TLR7 (Homo sapiens, UniProt Q9NYK1); test: TLR7 inhibition reporter assay (HEK-Blue cells, SEAP reporter, gardiquimod stimulation); details: HEK-Blue cells overexpressing human TLR7, SEAP reporter, gardiquimod 7.5 μM
T1 construct: host or cells: HEK-Blue cells (HEK293-derived reporter line)
T1 sequence (Q9NYK1 27-1049): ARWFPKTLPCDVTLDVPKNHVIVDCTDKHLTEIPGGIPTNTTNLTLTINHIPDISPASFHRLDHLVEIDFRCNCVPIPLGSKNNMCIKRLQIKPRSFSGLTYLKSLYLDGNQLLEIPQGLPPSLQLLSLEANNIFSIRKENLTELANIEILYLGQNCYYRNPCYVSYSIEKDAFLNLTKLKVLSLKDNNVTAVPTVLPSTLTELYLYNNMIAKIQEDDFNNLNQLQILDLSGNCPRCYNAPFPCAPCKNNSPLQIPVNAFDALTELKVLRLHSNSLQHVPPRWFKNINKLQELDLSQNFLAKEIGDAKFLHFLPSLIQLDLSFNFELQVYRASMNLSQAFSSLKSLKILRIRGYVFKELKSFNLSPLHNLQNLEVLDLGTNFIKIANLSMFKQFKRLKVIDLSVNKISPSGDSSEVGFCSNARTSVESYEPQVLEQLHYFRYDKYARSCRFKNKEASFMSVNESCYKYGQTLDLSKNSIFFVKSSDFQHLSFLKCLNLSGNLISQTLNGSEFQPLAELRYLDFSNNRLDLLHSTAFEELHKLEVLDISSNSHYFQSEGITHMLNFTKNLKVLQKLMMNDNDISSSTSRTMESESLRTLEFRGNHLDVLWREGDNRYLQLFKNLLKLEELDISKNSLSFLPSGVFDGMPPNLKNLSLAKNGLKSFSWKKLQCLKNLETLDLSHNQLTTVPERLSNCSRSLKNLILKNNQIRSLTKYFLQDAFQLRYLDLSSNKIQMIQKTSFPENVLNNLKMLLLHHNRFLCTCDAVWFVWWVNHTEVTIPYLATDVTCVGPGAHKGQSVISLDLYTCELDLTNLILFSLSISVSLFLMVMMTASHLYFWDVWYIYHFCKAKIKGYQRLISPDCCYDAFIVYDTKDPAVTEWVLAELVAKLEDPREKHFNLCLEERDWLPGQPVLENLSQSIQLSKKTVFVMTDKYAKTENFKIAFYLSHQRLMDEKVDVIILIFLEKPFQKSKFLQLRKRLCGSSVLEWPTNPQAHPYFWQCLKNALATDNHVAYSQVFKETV
Procedure, shortened: (§1)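 Read-out is SEAP activity in HEK-Blue detection medium after 22 h at 37 °C, converted to percent inhibition against agonist-plus-DMSO and reference-inhibitor controls. Cells saw compound (0.05 nM–50 μM, 30 min, room temperature) before gardiquimod 7.5 μM, R848 15.9 μM or ODN2006 5 nM for TLR7, TLR8 and TLR9, respectively.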

human TLR8 = target: T2, human TLR8 (Homo sapiens, UniProt Q9NR97); test: TLR8 inhibition reporter assay (HEK-Blue cells, SEAP reporter, R848 stimulation); details: HEK-Blue cells overexpressing human TLR8, SEAP reporter, R848 15.9 μM
T2 construct: host or cells: HEK-Blue cells (HEK293-derived reporter line)
T2 sequence (Q9NR97 27-1041): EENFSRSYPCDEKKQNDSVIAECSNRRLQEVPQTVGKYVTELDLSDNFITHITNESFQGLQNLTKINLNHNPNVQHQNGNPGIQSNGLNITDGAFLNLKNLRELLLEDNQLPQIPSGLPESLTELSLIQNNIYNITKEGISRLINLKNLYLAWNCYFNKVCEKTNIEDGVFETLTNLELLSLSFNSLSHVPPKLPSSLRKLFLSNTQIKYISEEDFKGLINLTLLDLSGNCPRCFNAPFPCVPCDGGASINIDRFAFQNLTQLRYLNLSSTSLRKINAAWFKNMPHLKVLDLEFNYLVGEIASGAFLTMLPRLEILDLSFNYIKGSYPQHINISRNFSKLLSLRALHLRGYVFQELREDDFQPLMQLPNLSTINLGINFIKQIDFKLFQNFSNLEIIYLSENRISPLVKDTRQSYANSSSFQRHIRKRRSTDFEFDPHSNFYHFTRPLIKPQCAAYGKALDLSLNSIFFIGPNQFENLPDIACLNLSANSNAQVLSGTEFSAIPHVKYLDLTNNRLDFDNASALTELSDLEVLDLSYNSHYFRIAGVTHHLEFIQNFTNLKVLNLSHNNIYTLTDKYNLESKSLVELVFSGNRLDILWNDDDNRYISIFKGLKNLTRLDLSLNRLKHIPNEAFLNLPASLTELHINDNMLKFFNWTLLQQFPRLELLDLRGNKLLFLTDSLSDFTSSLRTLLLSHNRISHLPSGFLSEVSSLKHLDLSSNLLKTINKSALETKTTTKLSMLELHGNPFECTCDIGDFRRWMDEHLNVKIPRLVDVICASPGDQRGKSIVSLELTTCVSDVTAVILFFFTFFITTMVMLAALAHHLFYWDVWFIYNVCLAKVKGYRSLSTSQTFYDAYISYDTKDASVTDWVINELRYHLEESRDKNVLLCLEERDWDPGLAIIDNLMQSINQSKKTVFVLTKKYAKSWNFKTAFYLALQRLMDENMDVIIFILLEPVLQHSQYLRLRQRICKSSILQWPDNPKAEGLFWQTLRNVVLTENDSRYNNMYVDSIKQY
Procedure, shortened: as §1

human TLR9 = target: T3, human TLR9 (Homo sapiens, UniProt Q9NR96); test: TLR9 inhibition reporter assay (HEK-Blue cells, SEAP reporter, ODN2006 stimulation); details: HEK-Blue cells overexpressing human TLR9, SEAP reporter, ODN2006 5 nM
T3 construct: host or cells: HEK-Blue cells (HEK293-derived reporter line)
T3 sequence (Q9NR96 26-1032): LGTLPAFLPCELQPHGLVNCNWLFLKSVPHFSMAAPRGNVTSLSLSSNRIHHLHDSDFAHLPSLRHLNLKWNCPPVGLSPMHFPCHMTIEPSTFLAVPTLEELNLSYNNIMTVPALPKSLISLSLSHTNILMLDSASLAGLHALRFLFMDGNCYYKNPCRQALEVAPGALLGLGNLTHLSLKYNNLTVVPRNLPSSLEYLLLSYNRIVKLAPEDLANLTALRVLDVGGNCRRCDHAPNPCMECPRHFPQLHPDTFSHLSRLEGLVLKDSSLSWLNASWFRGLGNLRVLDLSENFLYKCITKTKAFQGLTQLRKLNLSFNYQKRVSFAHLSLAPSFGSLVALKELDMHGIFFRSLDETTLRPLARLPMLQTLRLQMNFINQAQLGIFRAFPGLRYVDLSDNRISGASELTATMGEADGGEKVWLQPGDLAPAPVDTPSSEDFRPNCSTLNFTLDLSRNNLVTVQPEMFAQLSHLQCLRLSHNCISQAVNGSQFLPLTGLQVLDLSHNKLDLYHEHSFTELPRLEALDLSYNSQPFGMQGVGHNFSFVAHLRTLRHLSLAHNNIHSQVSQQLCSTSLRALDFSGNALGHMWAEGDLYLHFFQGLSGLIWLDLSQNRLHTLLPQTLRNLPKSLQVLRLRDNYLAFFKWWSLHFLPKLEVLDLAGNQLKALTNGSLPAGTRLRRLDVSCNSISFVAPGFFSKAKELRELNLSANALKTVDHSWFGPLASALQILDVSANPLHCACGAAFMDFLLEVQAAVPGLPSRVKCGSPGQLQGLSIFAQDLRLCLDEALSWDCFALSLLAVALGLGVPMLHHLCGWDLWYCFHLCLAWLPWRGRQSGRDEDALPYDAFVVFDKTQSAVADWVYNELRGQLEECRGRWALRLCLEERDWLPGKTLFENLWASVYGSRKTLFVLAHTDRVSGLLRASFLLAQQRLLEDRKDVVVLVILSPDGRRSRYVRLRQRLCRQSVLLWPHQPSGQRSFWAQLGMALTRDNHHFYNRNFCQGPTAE
Procedure, shortened: as §1

Row | Compound | IC50 (human TLR7) | IC50 (human TLR8) | IC50 (human TLR9)
1 | Cc1cc(-c2[nH]c3ccc(C4CCN(C5COC5)CC4)cc3c2C(C)C)cc2[nH]c(=O)oc12 [Example 708, 5-(3-isopropyl-5-(1-(oxetan-3-yl)piperidin-4-yl)-1H-indol-2-yl)-7-methylbenzo[d]oxazol-2(3H)-one] | 100 to 1000 nM | 100 to 1000 nM | 1000 to 50000 nM
2 | Cc1ccnc2c1c(-c1[nH]c3ccc(C4CCNCC4)cc3c1C(C)C)cn2C [Example 35, 3-(3-isopropyl-5-(piperidin-4-yl)-1H-indol-2-yl)-1,4-dimethyl-1H-pyrrolo[2,3-b]pyridine] | < 100 nM | < 100 nM | 1000 to 50000 nM
3 | CNC(=O)CN1CCC(c2ccc3[nH]c(-c4cc(OC)n5ncnc5c4)c(C(C)C)c3c2)CC1 [Example 332, 2-(4-(3-isopropyl-2-(5-methoxy-[1,2,4]triazolo[1,5-a]pyridin-7-yl)-1H-indol-5-yl)piperidin-1-yl)-N-methylacetamide] | < 100 nM | < 100 nM | 100 to 1000 nM
4 | CC(C)c1c(-c2cc(C(C)C)c3nccn3c2)[nH]c2ccc(C3CCNCC3)cc12 [Example 260, 8-Isopropyl-6-(3-isopropyl-5-(piperidin-4-yl)-1H-indol-2-yl)imidazo[1,2-a]pyridine] | < 100 nM | 100 to 1000 nM | 1000 to 50000 nM
5 | CNC(=O)CN1CCC(c2ccc3[nH]c(-c4cnc5c(cnn5C)c4)c(C(C)C)c3c2)CC1 [Example 366, 2-(4-(3-isopropyl-2-(1-methyl-1H-pyrazolo[3,4-b]pyridin-5-yl)-1H-indol-5-yl)piperidin-1-yl)-N-methylacetamide] | < 100 nM | < 100 nM | 1000 to 50000 nM
6 | Cc1cc2[nH]c(-c3ccnc4[nH]ncc34)c(C(C)C)c2cc1C1CCNCC1 [Example 250, 4-(3-isopropyl-6-methyl-5-(piperidin-4-yl)-1H-indol-2-yl)-1H-pyrazolo[3,4-b]pyridine] | < 100 nM | < 100 nM | 100 to 1000 nM
7 | CC(C)c1c(-c2cnc3ccnn3c2)[nH]c2ccc(C3CCN(C(=O)[C@@H]4NCC[C@H]4O)CC3)cc12 [Example 513, ((2R,3R)-3-hydroxypyrrolidin-2-yl)(4-(3-isopropyl-2-(pyrazolo[1,5-a]pyrimidin-6-yl)-1H-indol-5-yl)piperidin-1-yl)methanone] | 1000 to 50000 nM | > 3130 nM | 1000 to 50000 nM
8 | COc1cc(-c2[nH]c3ccc(C4CCNCC4)cc3c2C(C)C)cc2nc(C)cn12 [Example 162, 7-(3-isopropyl-5-(piperidin-4-yl)-1H-indol-2-yl)-5-methoxy-2-methylimidazo[1,2-a]pyridine] | < 100 nM | 100 to 1000 nM | 100 to 1000 nM
9 | Cc1cc(-c2[nH]c3ccc(C4CCNCC4)cc3c2C(C)C)cn2nnnc12 [Example 75, 6-(3-isopropyl-5-(piperidin-4-yl)-1H-indol-2-yl)-8-methyltetrazolo[1,5-a]pyridine] | < 100 nM | < 100 nM | 100 to 1000 nM
10 | Cc1cc(-c2[nH]c3ccc(C4CCNCC4)cc3c2C(C)C)cc2ccnn12 [Example 143, 5-(3-isopropyl-5-(piperidin-4-yl)-1H-indol-2-yl)-7-methylpyrazolo[1,5-a]pyridine] | < 100 nM | < 100 nM | 1000 to 50000 nM
11 | Cc1cn2cc(-c3[nH]c4ccc(C5CCN(C(=O)CN(C)C)CC5)cc4c3C(C)C)cc(C)c2n1 [Example 509, 2-(dimethylamino)-1-(4-(2-(2,8-dimethylimidazo[1,2-a]pyridin-6-yl)-3-isopropyl-1H-indol-5-yl)piperidin-1-yl)ethan-1-one] | < 100 nM | < 100 nM | 100 to 1000 nM
12 | CC(C)c1c(-c2cn(C)c3ncncc23)[nH]c2ccc(C3CCN(C4CCOCC4)CC3)cc12 [Example 688, 5-(3-isopropyl-5-(1-(tetrahydro-2H-pyran-4-yl)piperidin-4-yl)-1H-indol-2-yl)-7-methyl-7H-pyrrolo[2,3-d]pyrimidine] | < 100 nM | < 100 nM | 1000 to 50000 nM
13 | CCc1c(-c2ccc3ncc(C#N)n3n2)[nH]c2ccc(C3CCNCC3)cc12 [Example 102, 6-(3-ethyl-5-(piperidin-4-yl)-1H-indol-2-yl)imidazo [1,2-b]pyridazine-3-carbonitrile] | 1000 to 50000 nM | 1000 to 50000 nM | 1000 to 50000 nM
14 | Cc1ncc(CN2CCC(c3ccc4[nH]c(-c5ccnc6[nH]ncc56)c(C(C)C)c4c3)CC2)[nH]1 [Example 869, 4-(3-isopropyl-5-(1-((2-methyl-1H-imidazol-5-yl)methyl)piperidin-4-yl)-1H-indol-2-yl)-1H-pyrazolo[3,4-b]pyridine] | < 100 nM | < 100 nM | 100 to 1000 nM
15 | Cc1cc(-c2[nH]c3ccc(C4CCN(C5CCS(=O)(=O)CC5)CC4)cc3c2C(C)C)cn2nnnc12 [Example 788, 4-(4-(3-isopropyl-2-(8-methyltetrazolo[1,5-a]pyridin-6-yl)-1H-indol-5-yl)piperidin-1-yl)tetrahydro-2H-thiopyran 1,1-dioxide] | < 100 nM | < 100 nM | 1000 to 50000 nM
